The results in this text go back to publication PMC8470823, “8-Amino-6-Methoxyquinoline—Tetrazole Hybrids: Impact of Linkers on Antiplasmodial Activity” (Molecules, 2021).

Like-named read-outs stand apart in the source and are kept apart here.

Series [1] can be described thus: In vitro cytotoxicity with L-6 cells (Alamar Blue). It is filed as cell-based, rat. On the procedure: (§1) Serial drug dilutions of 11 3-fold dilution steps covering a range from 100 to 0.002 μg/mL were prepared. After 70 h of incubation, the plates were inspected under an inverted microscope to assure the growth of the controls and sterile conditions. Then, 0.01 mL of Alamar Blue was added to each well and the plates incubated for another 2 h. The plates were read with a Spectramax Gemini XS microplate fluorometer (Molecular Devices Cooperation, Sunnyvale, CA, USA) using an excitation wavelength of 536 nm and an emission wavelength of 588 nm. The IC50 values were calculated by linear regression from the sigmoidal dose inhibition curves using SoftmaxPro software (Molecular Devices Cooperation, Sunnyvale, CA, USA). Podophyllotoxin (Sigma P4405) was used as control.

In another series the test system is P. falciparum NF54. Kind of series: In vitro microplate assay against P. falciparum (3H-hypoxanthine incorporation). In kind it is cell-based, Plasmodium falciparum. Conditions: for S.I. = IC50 (Cyt.)/IC50 (P.f. NF54): selectivity index: L-6 cells IC50 / P.f. NF54 IC50. On the procedure:
Chloroquine (Sigma C6628) was used as standard. Compounds were dissolved in DMSO at 10 mg/mL and added to parasite cultures incubated in RPMI 1640 medium without hypoxanthine, supplemented with HEPES (5.94 g/L), NaHCO3 (2.1 g/L), neomycin (100 U/mL), Albumax (5 g/L) and washed human red cells A^+ at 2.5% hematocrit (0.3% parasitemia). Serial drug dilutions of 11 3-fold dilution steps covering a range from 100 to 0.002 μg/mL were prepared. […] After 48 h, 0.05 mL of ^3H-hypoxanthine (=0.5 μCi) was added to each well of the plate. The plates were incubated for a further 24 h under the same conditions. The plates were then harvested with a Betaplate cell harvester (Wallac, Zurich, Switzerland). The red blood cells were transferred onto a glass fiber filter and washed with distilled water. The dried filters were inserted into a plastic foil with 10 mL of scintillation fluid and counted in a Betaplate liquid scintillation counter (Wallac, Zurich, Switzerland). IC50 values were calculated from sigmoidal inhibition curves by linear regression using Microsoft Excel. Artemisinin and chloroquine were used as control.

The test system of the next series is L-6 cells. In words: In vitro cytotoxicity with L-6 cells (Alamar Blue). In kind it is cell-based, rat. On the procedure: as §1
The mark [2] stands for this setting: rat skeletal myoblasts, average of four determinations, read-out: Cytotoxicity L-6 Cells IC50.
The mark [3] stands for this setting: rat, Cytotoxicity L-6 Cells IC50.
[4] abbreviates: Plasmodium falciparum, chloroquine-sensitive strain NF54, erythrocytic stages, average of four determinations, read-out: P.f. NF54 IC50.

As to `CCN(CC)CCCC(C)Nc1ccnc2cc(Cl)ccc12` (stereo not drawn) [CQ, chloroquine, reference compound], the IC50 at 72 h in series [1] (setting [2]) came out at 90.9 µM. For the same compound, the IC50 in the series on P. falciparum NF54 (Plasmodium falciparum, NF54, read-out: P.f. NF54 IC50) came out at 0.0039 µM. The “S.I. = IC50 (Cyt.)/IC50 (P.f. NF54)” value with P. falciparum NF54 is given as 23,313.

The compound `CCC(NCCNc1cc(OC)cc2cccnc12)c1nnnn1C(C)(C)C` (stereo not drawn) [Compound 7, N^1-(6-Methoxyquinolin-8-yl)-N^2-(1-(tert-butyl-1H-tetrazol-5-yl)propyl)ethan-1,2-diamine] displayed an IC50 at 72 h in series [1] (setting [3]) of 144 µM. In addition, the IC50 in the series on P. falciparum NF54 (setting [4]) was 16 µM.

The compound `COc1cc(NCCNC(c2ccccc2)c2nnnn2C(C)(C)C)c2ncccc2c1` (stereo not drawn) [Compound 8, N^1-(6-Methoxyquinolin-8-yl)-N^2-((phenyl)(tert-butyl-1H-tetrazol-5-yl)methyl)ethan-1,2-diamine] registered an IC50 at 72 h in series [1] (setting [3]) of 58 µM. Moreover, the IC50 in the series with P. falciparum NF54 (setting [4]) was 6.09 µM. In the series with P. falciparum NF54, the “S.I. = IC50 (Cyt.)/IC50 (P.f. NF54)” value came out at 9.52.

For the compound `COc1cc(NCCNC(c2ccc(F)cc2)c2nnnn2C(C)(C)C)c2ncccc2c1` (stereo not drawn) [Compound 9, N^1-((4-Fluorophenyl)(tert-butyl-1H-tetrazol-5-yl)methyl)-N^2-(6-methoxyquinolin-8-yl)ethan-1,2-diamine], the IC50 at 72 h in series [1] (setting [3]) is 55.4 µM. The IC50 with P. falciparum NF54 (setting [4]) turned out to be 7.05 µM. Also, in the series on P. falciparum NF54, the “S.I. = IC50 (Cyt.)/IC50 (P.f. NF54)” value is given as 7.86.

`COc1cc(NCCNC(c2ccc(Cl)cc2)c2nnnn2C(C)(C)C)c2ncccc2c1` (stereo not drawn) [Compound 10, N^1-((4-Chlorophenyl)(tert-butyl-1H-tetrazol-5-yl)methyl)-N^2-(6-methoxyquinolin-8-yl)ethan-1,2-diamine]: half-maximal inhibition in series [1] (setting [3]) (IC50 at 72 h) required 92.3 µM. Also, the IC50 in the series on P. falciparum NF54 (setting [4]) came to 5.34 µM. Also, in the series with P. falciparum NF54, the “S.I. = IC50 (Cyt.)/IC50 (P.f. NF54)” value was determined as 17.29.

`COc1cc(NCCNC(c2ccc(Br)cc2)c2nnnn2C(C)(C)C)c2ncccc2c1` (stereo not drawn) [Compound 11, N^1-((4-Bromophenyl)(tert-butyl-1H-tetrazol-5-yl)methyl)-N^2-(6-methoxyquinolin-8-yl)ethan-1,2-diamine] gave an IC50 at 72 h in series [1] (setting [3]) of 34.1 µM. For the same compound, the IC50 with P. falciparum NF54 (setting [4]) is 2.51 µM. In the series on P. falciparum NF54, the “S.I. = IC50 (Cyt.)/IC50 (P.f. NF54)” value amounted to 13.57.

In the case of `CCC(Nc1cc(OC)cc2cccnc12)c1nnnn1C(C)(C)C` (stereo not drawn) [Compound 13, 6-Methoxy-N-(1-(1-tert-butyl-1H-tetrazol-5-yl)propyl)quinolin-8-amine], the IC50 at 72 h in series [1] (setting [3]) is 91.1 µM. Also, in the series with P. falciparum NF54 (setting [4]), the IC50 was 23.6 µM. In the series on P. falciparum NF54, the “S.I. = IC50 (Cyt.)/IC50 (P.f. NF54)” value turned out to be 3.86.

`COc1cc(NC(c2ccccc2)c2nnnn2C(C)(C)C)c2ncccc2c1` (stereo not drawn) [Compound 14, 6-Methoxy-N-((phenyl)(1-tert-butyl-1H-tetrazol-5-yl)methyl)quinolin-8-amine]: the IC50 at 72 h in series [1] (setting [3]) was found to be 49 µM. Also, the IC50 in the series on P. falciparum NF54 (setting [4]) is 5.12 µM. Further, the “S.I. = IC50 (Cyt.)/IC50 (P.f. NF54)” value in the series with P. falciparum NF54 worked out at 9.56.

Turning to `COc1cc(NC(c2ccc(F)cc2)c2nnnn2C(C)(C)C)c2ncccc2c1` (stereo not drawn) [Compound 15, N-((4-Fluorophenyl)(1-tert-butyl-1H-tetrazol-5-yl)methyl)-6-methoxyquinolin-8-amine], the IC50 in the series with L-6 cells (rat, 72 h) amounted to 124 µM; with P. falciparum NF54 (setting [4]), 2.68 µM. The compound further registered an IC50 at 72 h in series [1] (setting [3]) of 119 to 124 µM.

The compound `COc1cc(NC(c2ccc(Cl)cc2)c2nnnn2C(C)(C)C)c2ncccc2c1` (stereo not drawn) [Compound 16, N-((4-Chlorophenyl)(1-tert-butyl-1H-tetrazol-5-yl)methyl)-6-methoxyquinolin-8-amine] registered an IC50 at 72 h in series [1] (setting [3]) of 236 µM. Besides, in the series on P. falciparum NF54 (setting [4]), the IC50 was 0.743 µM. Besides, the “S.I. = IC50 (Cyt.)/IC50 (P.f. NF54)” value in the series with P. falciparum NF54 stood at 318.3.

In series [1] (setting [3]), `COc1cc(NC(c2ccc(Br)cc2)c2nnnn2C(C)(C)C)c2ncccc2c1` (stereo not drawn) [Compound 17, N-((4-Bromophenyl)(1-tert-butyl-1H-tetrazol-5-yl)methyl)-6-methoxyquinolin-8-amine] gave an IC50 at 72 h of 96.9 µM. In addition, the IC50 in the series with P. falciparum NF54 (setting [4]) was 0.464 µM. The “S.I. = IC50 (Cyt.)/IC50 (P.f. NF54)” value in the series on P. falciparum NF54 came to 208.8.

As for `COc1cc(NC(c2ccc(C(F)(F)F)cc2)c2nnnn2C(C)(C)C)c2ncccc2c1` (stereo not drawn) [Compound 18, 6-Methoxy-N-((1-tert-butyl-1H-tetrazol-5-yl)(4-(trifluoromethyl)phenyl)methyl)quinolin-8-amine], 176 µM corresponded to half-maximal inhibition in series [1] (setting [3]) (IC50 at 72 h). Further, the IC50 in the series on P. falciparum NF54 (setting [4]) turned out to be 0.644 µM. Also, in the series with P. falciparum NF54, the “S.I. = IC50 (Cyt.)/IC50 (P.f. NF54)” value worked out at 273.3.

In turn, `COc1cc(NC(c2ccc(C)cc2)c2nnnn2C(C)(C)C)c2ncccc2c1` (stereo not drawn) [Compound 19, 6-Methoxy-N-((4-methylphenyl)(1-tert-butyl-1H-tetrazol-5-yl)methyl)quinolin-8-amine] showed an IC50 at 72 h in series [1] (setting [3]) of 248 µM. In addition, the IC50 with P. falciparum NF54 (setting [4]) came out at 1.04 µM. Moreover, in the series on P. falciparum NF54, the “S.I. = IC50 (Cyt.)/IC50 (P.f. NF54)” value turned out to be 238.9.

As for `COc1cc(NC(c2ccc(C(C)C)cc2)c2nnnn2C(C)(C)C)c2ncccc2c1` (stereo not drawn) [Compound 20, 6-Methoxy-N-((4-(propan-2-yl)phenyl)(1-tert-butyl-1H-tetrazol-5-yl)methyl)quinolin-8-amine], the IC50 with L-6 cells (rat, 72 h) is 119 µM; in the series with P. falciparum NF54 (setting [4]), 2 µM. The IC50 at 72 h in series [1] (setting [3]) fell in the range of 119 to 124 µM.

In turn, `COc1cc(NC(c2cccc3ccccc23)c2nnnn2C(C)(C)C)c2ncccc2c1` (stereo not drawn) [Compound 21, 6-Methoxy-N-((naphthalen-1-yl)(1-tert-butyl-1H-tetrazol-5-yl)methyl)quinolin-8-amine] gave an IC50 at 72 h in series [1] (setting [3]) of 173 µM. The IC50 with P. falciparum NF54 (setting [4]) came to 1.26 µM. In addition, the “S.I. = IC50 (Cyt.)/IC50 (P.f. NF54)” value in the series with P. falciparum NF54 worked out at 137.6.

For the compound `CCCCCCCC(Nc1cc(OC)cc2cccnc12)c1nnnn1C(C)(C)C` (stereo not drawn) [Compound 22, 6-Methoxy-N-(1-(1-tert-butyl-1H-tetrazol-5-yl)octyl)quinolin-8-amine], the midpoint of inhibition in series [1] (setting [3]), the IC50 at 72 h, lay at 54.7 µM. In addition, the IC50 with P. falciparum NF54 (setting [4]) came to 0.324 µM. The “S.I. = IC50 (Cyt.)/IC50 (P.f. NF54)” value in the series on P. falciparum NF54 worked out at 168.9.

In the case of `COc1cc([C@@H]2c3cc4c(cc3[C@H](O)[C@H]3COC(=O)[C@H]23)OCO4)cc(OC)c1OC` [POD, podophyllotoxin, reference compound], the IC50 in the series on L-6 cells (setting [2]) worked out at 0.012 µM.

With “N^1-(6-Methoxyquinolin-8-yl)-N^2-((tert-butyl-1H-tetrazol-5-yl)(2-(trifluoromethyl)phenyl) methyl)-ethan-1,2-diamine [Compound 12]”, the IC50 in the series on L-6 cells was 22.3 µM; in the series with P. falciparum NF54 (chloroquine-sensitive strain NF54, erythrocytic stages, average of four determinations, read-out: P.f. NF54 IC50), 2.92 µM. Further, the “S.I. = IC50 (Cyt.)/IC50 (P.f. NF54)” value in the series with P. falciparum NF54 was 7.64.
